Among the data in ChEMBL document CHEMBL1129142, “Synthesis of azido derivatives of semotiadil, a novel 1,4-benzothiazine calcium antagonist, for photoaffinity probes of calcium channels” (Bioorg Med Chem Lett, 1996) are IC50 and Ki values, retold here.

Experiment [1] in a line: [Ca2+] antagonistic activity was measured with isolated depolarized guinea pig taenia cecum. The class given is functional, tissue-based, Cavia porcellus, Caecum.
Experiment [2] is described as follows: Displacement of [3H]semotiadil from L-type calcium channel of rabbit skeletal muscle. It is filed as tissue-based, Oryctolagus cuniculus, Muscle tissue.
Experiment [3] can be described thus: [Ca2+] antagonistic activity was measured with isolated depolarized guinea pig taenia cecum.(test 1). The class given is functional, tissue-based, Cavia porcellus, Caecum.
Experiment [4] in a line: [Ca2+] antagonistic activity was measured with isolated depolarized guinea pig taenia cecum.(test 2). It is filed as functional, tissue-based, Cavia porcellus, Caecum.

Consider `COc1ccc(OCCCN(C)CCOc2ccc3c(c2)OCO3)c([C@H]2Sc3ccccc3N(CCN=[N+]=[N-])C2=O)c1`, for which inhibition in experiment [1] was half-maximal at 275 nM (IC50).

For the compound `COc1ccc(OCCCN(C)CCOc2cccc(N=[N+]=[N-])c2)c([C@H]2Sc3ccccc3N(C)C2=O)c1`, the midpoint of inhibition in experiment [1], the IC50, lay at 654 nM. The Ki (in general, the dissociation constant of the complex between target and ligand, obtained from inhibition or displacement) in experiment [2] was 2670 nM.

With `COc1ccc(OCCCN(C)CCOc2ccc3c(c2)OCO3)c([C@H]2Sc3ccccc3N(CCCCN=[N+]=[N-])C2=O)c1`, in experiment [1], half-maximal inhibition (IC50) was put at 537 nM.

With `COc1ccc(OCCCN(C)CCOc2cccc(N=[N+]=[N-])c2)c(C2Sc3ccccc3N(C)C2=O)c1` (centres undefined), the results for the IC50 in experiment [3] and in experiment [4] were 427 nM and 1380 nM, respectively.

With `COc1ccc(OCCCN(C)CCOc2ccc3c(c2)OCO3)c([C@H]2Sc3ccccc3N(C)C2=O)c1` [SEMOTIADIL], the IC50 (usually the concentration that inhibits the measured activity by half) in experiment [3] amounted to 42.7 nM; in experiment [4], 54.5 nM. Further, in experiment [2], the Ki was determined as 121 nM.
